Earlier results on 69 molecules are cited in patent publication US20240156825A1, “USE OF SELECTIVE VEGFR2 AND FGFR1 INHIBITORS” (Fountain Therapeutics Inc., priority 2022, published 2024).

Where two headings read alike, the source gives them in different places.

This series concerns any gene target. The conditions noted are these: read-out: Min IC50_μM, cited from earlier work.
The mark [1] stands for this setting: next lowest IC50 value to any gene target.
Where [2] appears, read: lowest reported IC50 to any gene target.
[3] abbreviates: next lowest IC50 value to any gene target, Table 3.
Where [4] appears, read: Table 2, lowest reported IC50 to any gene target.

Take `Clc1ccc(Nc2nnc(Cc3ccncc3)c3ccccc23)cc1` [compound 151193]: the IC50 under setting [1] was 77 nM.
Take `Clc1ccc(Nc2nnc(Cc3ccncc3)c3ccccc23)cc1` [compound 151194]: the IC50 under setting [1] is 54 nM.
For the molecule `CNC(=O)c1cc(Oc2ccc(NC(=O)Nc3ccc(Cl)c(C(F)(F)F)c3)cc2)ccn1` [compound 216239], the IC50 under setting [1] was 0.2 nM.
With `COc1cc2c(Nc3ccc(Br)cc3F)ncnc2cc1OCC1CCN(C)CC1` [compound 3081361], the IC50 under setting [1] is 11 nM.
Regarding `CN1CCN(CCCNc2ncc3cc(-c4c(Cl)cccc4Cl)c(NC(=O)NC4CCCCC4)nc3n2)CC1` [compound 5328158], under setting [2], the IC50 is 31 nM.
On to `COc1cc2ncnc(Nc3ccc(Cl)cc3F)c2cc1OC` [compound 5329006], for which the IC50 under setting [1] was 1000 nM.
For `COc1cc(OC)cc(-c2cc3cnc(NCCCCCN4CCOCC4)cc3nc2NC(=O)NC(C)(C)C)c1` [compound 5330134], the IC50 under setting [2] was 0.5 nM.
In the case of `O=C(Nc1cccc(C(F)(F)F)c1)c1ccccc1NCc1ccncc1` [compound 6398883], the IC50 under setting [1] is 18 nM.
For the molecule `CNC(=O)c1ccccc1Sc1ccc2c(/C=C/c3ccccn3)n[nH]c2c1` [compound 6450551], the IC50 under setting [3] is 0.1 nM.
As to `Cc1cccc(NC(=O)Nc2ccc(-c3csc4ncnc(N)c34)cc2)c1` [compound 6539985], the IC50 under setting [1] is 2 nM.
For `CCCNC(=O)Nc1ccc(Oc2ncnc3cc(OC)c(OC)cc23)cc1Cl` [compound 9549295], the IC50 under setting [3] was 1 nM.
On to `O=C(Nc1ccc(Cl)cc1)c1ccccc1NCc1ccncc1` [compound 9797919], for which the IC50 under setting [1] is 180 nM.
On to `COc1cc2nccc(Oc3ccc(NC(=O)NC4CC4)c(Cl)c3)c2cc1C(N)=O` [compound 9823820], for which, under setting [1], the IC50 was 5.2 nM.
Take `COC(=O)C1=C(c2ccccc2)c2ccccc2C1=O` [compound 10015651]: the IC50 under setting [2] was 5100 nM.
Take `Cc1ccc(Nc2nccc(N(C)c3ccc4c(C)n(C)nc4c3)n2)cc1S(N)(=O)=O` [compound 10113978]: the IC50 under setting [1] was 10 nM.
On to `COc1cc2nccc(Oc3ccc4c(C(N)=O)cccc4c3)c2cc1C(N)=O` [compound 11211389], for which the IC50 under setting [1] was 390 nM.
With `O=C(NCc1ccccc1)c1cc2c(-c3ccccc3)n[nH]c2s1` [compound 11359538], the IC50 under setting [1] is 2000 nM.
In the case of `COc1ccc(-c2ccc(NC(=O)Nc3cccc(C(F)(F)F)c3)cc2)c2c(N)noc12` [compound 11374110], under setting [1], the IC50 was 16 nM.
Take `COc1ccc(-c2ccc(NC(=O)Nc3cc(C)ccc3F)cc2)c2c(N)noc12` [compound 11429654]: the IC50 under setting [1] was 24 nM.
Turning to `COc1ccc(-c2ccc(NC(=O)Nc3cccc(Cl)c3)cc2)c2c(N)noc12` [compound 11429729], under setting [1], the IC50 is 30 nM.
Consider `COc1cc2nccc(Oc3ccc4c(C(=O)NC5CC5)cccc4c3)c2cc1OC` [compound 11441375], for which the IC50 under setting [1] was 27 nM.
As for `CONC(=O)c1cc(Nc2ncnn3cc(-c4nnc(C(C)C)o4)c(C(C)C)c23)c(F)cc1F` [compound 11442803], the IC50 under setting [2] is 1 nM.
With `CCNC(=O)c1cccc2cc(Oc3ccnc4cc(OC)c(OC)cc34)ccc12` [compound 11486459], under setting [1], the IC50 is 46 nM.
In the case of `Nc1[nH]nc2nccc(-c3ccc(NC(=O)Nc4cccc(C(F)(F)F)c4)cc3)c12` [compound 11495270], the IC50 under setting [1] is 2 nM.
Regarding `Cc1cccc(NC(=O)Nc2ccc(-c3cncc4c3c(N)nn4C)cc2)c1` [compound 11588815], under setting [1], the IC50 was 2 nM.
In the case of `CNC(=O)c1cccc2cc(Oc3ccnc4cc(OC)c(OC)cc34)ccc12` [compound 11749561], the IC50 under setting [1] was 110 nM.
Take `CCNC(=O)Nc1ccc(Oc2ncnc(N)c2/C=N/OC)cc1Cl` [compound 16742063]: the IC50 under setting [1] is 183 nM.
As to `COc1cc2nccc(Oc3ccc4c(C(=O)Nc5ccc(Cl)cc5)cccc4c3)c2cc1OC` [compound 24757938], under setting [1], the IC50 is 0.5 nM.
As for `COc1cc2ncnc(Oc3ccc4c(C(N)=O)cccc4c3)c2cc1OC` [compound 24823094], the IC50 under setting [1] is 680 nM.
Regarding `COc1ccc2c(Oc3ccc4c(C(N)=O)cccc4c3)ccnc2c1` [compound 24823095], the IC50 under setting [1] was 130 nM.
Take `C[C@@H](Nc1ncnc2[nH]c(-c3ccc(CNCCCCCCCC(=O)NO)cc3)cc12)c1ccccc1` [compound 24900644]: the IC50 under setting [1] is 100 nM.
As for `COc1cc2nccc(Oc3ccc(NC(=O)C4(C(=O)Nc5ccc(F)cc5)CC4)cc3)c2cc1OC` [compound 25102847], the IC50 under setting [1] is 1.3 nM.
As for `COc1cc(OC)cc(-c2cc3cnc(N)nc3n(C)c2=O)c1` [compound 44294299], the IC50 under setting [2] is 126 nM.
Take `Cc1n[nH]c2sc(C(=O)NCc3ccccc3)cc12` [compound 44405941]: the IC50 under setting [1] was 16000 nM.
Regarding `Cc1n[nH]c2sc(C(N)=O)c(NC(=O)c3ccccc3Cl)c12` [compound 44405999], the IC50 under setting [1] was 9000 nM.
As to `O=C(NC1CCCCC1)c1cc2c(-c3ccccc3)n[nH]c2s1` [compound 44406074], the IC50 under setting [1] is 11000 nM.
As for `Nc1ncnc2snc(-c3ccc(NC(=O)Nc4cc(C(F)(F)F)ccc4F)cc3)c12` [compound 44414779], under setting [1], the IC50 is 22 nM.
Turning to `COc1ccc(N(C)c2ncnc3occ(C)c23)cc1` [compound 44555430], under setting [1], the IC50 is 12.3 nM.
For the molecule `C[C@@H](Oc1ccc2[nH]nc(/C=C/c3cnn(CCO)c3)c2c1)c1c(Cl)cncc1Cl` [compound 46944259], under setting [4], the IC50 was 2.6 nM.
For the molecule `COc1cc(CCc2cc(NC(=O)c3ccc(N4C[C@@H](C)N[C@@H](C)C4)cc3)n[nH]2)cc(OC)c1` [compound 51039095], the IC50 under setting [4] is 0.4 nM.
Turning to `Oc1ccc(-c2cnn3cc(-c4ccc(OCCN5CCOCC5)cc4)cnc23)cc1O` [compound 52944268], the IC50 under setting [3] is 1 nM.
Take `COc1ccc(OC)c(N(CCNC(C)C)c2ccc3ncc(-c4cnn(C)c4)nc3c2)c1` [compound 54591211]: under setting [4], the IC50 is 151 nM.
For the molecule `c1ccc(-c2cnc3cncc(Nc4ccc(N5CCCCC5)cc4)c3n2)cc1` [compound 57332840], under setting [1], the IC50 is 2020 nM.
In the case of `COc1ccc(-c2cnc3c(-c4cn[nH]c4)cnn3c2)cc1` [compound 57339386], the IC50 under setting [1] is 16 nM.
In the case of `COc1cc2c(Nc3ccc(Cl)c(Cl)c3F)ncnc2cc1OC[C@@H]1CN2CCCC[C@H]2C(=O)N1` [compound 57802612], under setting [3], the IC50 was 50 nM.
With `COc1cc2c(Nc3ccc(Cl)c(Cl)c3F)ncnc2cc1OC[C@@H]1CN2CCCC[C@@H]2C(=O)N1` [compound 57802634], under setting [3], the IC50 was 50 nM.
On to `COc1cc(OC)cc(N(CC#Cc2cccc(N)n2)c2ccc3ncc(-c4cnn(C)c4)nc3c2)c1` [compound 67466417], for which, under setting [4], the IC50 was 42.7 nM.
As for `COc1cc(OC)cc(N(CC#Cc2cc(C)ccn2)c2ccc3ncc(-c4cnn(C)c4)nc3c2)c1` [compound 67466880], under setting [2], the IC50 is 9.33 nM.
For `COc1cc(OC)cc(N(CC#Cc2nccc(OC)n2)c2ccc3ncc(-c4cnn(C)c4)nc3c2)c1` [compound 67467703], the IC50 under setting [4] is 7.41 nM.
Turning to `CNCCN(c1cc(OC)cc(OC)c1)c1ccc2ncc(-c3cnn(CC(=O)NC)c3)nc2c1` [compound 68208748], under setting [4], the IC50 was 2.57 nM.
In the case of `COc1cc(OC)cc(N(CCNCC2CC2)c2ccc3ncc(-c4cnn(C)c4)nc3c2)c1` [compound 68208778], the IC50 under setting [4] is 3.02 nM.
Consider `COc1cc(OC)cc(N(C[C@@H]2CCCN2)c2ccc3ncc(-c4cnn(C)c4)nc3c2)c1` [compound 68208803], for which the IC50 under setting [4] is 3.16 nM.
Regarding `COc1cc(OC)cc(N(Cc2ccccc2Cl)c2ccc3ncc(-c4cnn(C)c4)nc3c2)c1` [compound 68208812], the IC50 under setting [4] is 61.7 nM.
As to `COc1cc(OC)cc(N(CCCN)c2ccc3ncc(-c4cn[nH]c4)nc3c2)c1` [compound 68208813], the IC50 under setting [4] is 1.18 nM.
`CCN(CC)CCN(c1cc(OC)cc(OC)c1)c1ccc2ncc(-c3cnn(C)c3)nc2c1` [compound 68208850]: under setting [4], the IC50 was 3.02 nM.
Regarding `COc1cc(OC)cc(N(c2ccc3ncc(-c4cnn(C)c4)nc3c2)C(C)CNC(C)C)c1` (stereo not drawn) [compound 68208877], under setting [4], the IC50 is 4.9 nM.
As to `COc1cc(OC)cc(N(CCN2CCC(CCO)CC2)c2ccc3ncc(-c4cnn(C)c4)nc3c2)c1` [compound 68208907], the IC50 under setting [4] is 2.88 nM.
For the molecule `COc1cc(OC)cc(N(CC#Cc2cccc(CO)n2)c2ccc3ncc(-c4cnn(C)c4)nc3c2)c1` [compound 68208920], the IC50 under setting [4] is 46.8 nM.
As to `COc1cc(OC)cc(N(CCCc2cc(C)ccn2)c2ccc3ncc(-c4cnn(C)c4)nc3c2)c1` [compound 68208924], the IC50 under setting [2] is 10.7 nM.
As to `CCn1cc(-c2cnc3ccc(N(CCNC)c4cc(OC)cc(OC)c4)cc3n2)cn1` [compound 68208927], the IC50 under setting [4] is 3.55 nM.
With `COc1cc(OC)cc(N(Cc2ncccn2)c2ccc3ncc(-c4cnn(C)c4)nc3c2)c1` [compound 68208969], the IC50 under setting [4] is 8.13 nM.
On to `COc1cc(OC)cc(N(CCNC(C)C)c2ccc3ncc(-c4cnn(C5CCNCC5)c4)nc3c2)c1` [compound 68208989], for which the IC50 under setting [4] was 2.88 nM.
As to `COc1cc(OC)cc(N(CCCN2CCC(N)C2)c2ccc3ncc(-c4cnn(C)c4)nc3c2)c1` (stereo not drawn) [compound 68209028], the IC50 under setting [4] was 1.41 nM.
Regarding `COc1cc(OC)cc(N(CCN2CCCCC2)c2ccc3ncc(-c4cnn(C)c4)nc3c2)c1` [compound 68209029], the IC50 under setting [4] was 2.24 nM.
For `COc1cc(OC)cc(N(CCN(C)C(C)C)c2ccc3ncc(-c4cnn(C)c4)nc3c2)c1` [compound 68209043], under setting [4], the IC50 is 3.89 nM.
On to `COc1cc(OC)cc(N(CCN2CCC(N(C)C)CC2)c2ccc3ncc(-c4cnn(C)c4)nc3c2)c1` [compound 68209057], for which the IC50 under setting [2] is 5.13 nM.
Consider `COc1cc(OC)cc(N(CCN2CCC(C(C)(C)O)CC2)c2ccc3ncc(-c4cnn(C)c4)nc3c2)c1` [compound 68209085], for which, under setting [2], the IC50 is 3.89 nM.
With `CNC[C@H](O)CN(c1cc(OC)cc(OC)c1)c1ccc2ncc(-c3cnn(C)c3)nc2c1` [compound 68209125], the IC50 under setting [2] is 1.78 nM.
`COc1cc(OC)cc(N(CCNC(C)C)c2ccc3ncc(-c4cnn(C)c4C)nc3c2)c1` [compound 68209154]: the IC50 under setting [4] was 4.68 nM.
